Assay [1] deals with T1, PAP (Homo sapiens, UniProt P15309).
T1 sequence (P15309 33-386): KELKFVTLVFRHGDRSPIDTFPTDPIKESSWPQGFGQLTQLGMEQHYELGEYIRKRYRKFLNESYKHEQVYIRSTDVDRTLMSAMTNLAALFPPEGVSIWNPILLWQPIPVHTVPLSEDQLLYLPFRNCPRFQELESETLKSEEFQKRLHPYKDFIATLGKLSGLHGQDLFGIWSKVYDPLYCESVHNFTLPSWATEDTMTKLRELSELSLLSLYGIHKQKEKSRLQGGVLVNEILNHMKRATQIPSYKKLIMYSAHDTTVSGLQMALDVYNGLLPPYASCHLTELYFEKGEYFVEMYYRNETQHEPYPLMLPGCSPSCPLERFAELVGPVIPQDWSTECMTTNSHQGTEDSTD
Particulars: Vovk et al. 2008; cited from earlier work.

Assay [2] concerns MC3T3-E1 cells. Description: Alizarin Red mineralization assay in MC3T3-E1 cells. The format is cell-based, mouse. Particulars: PA 25 μM down to 0.2 μM, MC3T3-E1 cells without PAP.
The subject of assay [3] is MC3T3-E1 cells. Description: Inhibition of LuCaP 23.1 CM-induced mineralization in MC3T3-E1 cells (Alizarin Red). In kind it is cell-based, mouse. Particulars: 5 μM PA. The method, then:
(§1) Cultured cells, HCO or MC3T3-E1, were seeded at 50,000 cells/well in MEM and 10% FBS. MM was added to all cultures 1-2 days after seeding and replaced every other day. MM, LuCaP 23.1 CM (5%, 10%, or 20%), PAP, lyophilized powder obtained from human prostatic fluid (CSI 14633A; CELL SCIENCES®, Canton, Mass.) or phosphonic acid, P-[phenyl[(phenylmethyl)amino]methyl]- (CAS#25881-35-0; AURORA FINE CHEMICALS™ LLC, San Diego, Calif.) was added to cultures typically on day 5-6, before mineralization occurred. After mineralization, cells were fixed in 10% formalin for 20 minutes and then washed. 2% Alizarin Red was added to air-dried plates. After washing, retained dye was extracted in a solution of 20% methanol and 10% acetic acid in water, and absorbance was measured at 405 nm.
(§2) The benzylaminophosphonic acids are inhibitors of PAP (see Beers S A, et al. (1996) Bioorg Med Chem 4:1693-1701). […] To determine if PA would reduce LuCaP 23.1 CM associated mineralization, MC3T3-E1 cells were treated with 5% to 20% LuCaP 23.1 CM with 5 μM PA.

The target in assay [4] is T1, PAP. Description: Inhibition of PAP-induced mineralization in MC3T3-E1 cells (Alizarin Red). In kind it is cell-based. Particulars: MC3T3-E1 cells treated with 0.05 units of PAP. Set-up: PAP, lyophilized powder obtained from human prostatic fluid; purchased CELL SCIENCES, Canton, Mass; CSI 14633A; host or cells: natural protein from human prostatic fluid; added to mouse MC3T3-E1 cells. The method, then:
as §1, §2

In the case of `O=P(O)(O)[C@@H](NCc1ccccc1)c1ccccc1` (single isomer, unassigned) [R enantiomer of P-[phenyl[(phenylmethyl)amino]methyl]-, P-[phenyl[(phenylmethyl)amino]methyl]-], the PAP inhibition entry on PAP [1] is given as “potent inhibitor”.
On to `O=P(O)(O)C(NCc1ccccc1)c1ccccc1` (stereo not shown) [PA, [phenyl[(phenylmethyl)amino]methyl]-phosphonic acid], for which the “inhibition of mineralization by PA alone” value in the assay on MC3T3-E1 cells [2] is “No significant inhibition”. Moreover, the effect on mineralization entry with MC3T3-E1 cells [3] (5% LuCaP 23.1 CM), in the assay with MC3T3-E1 cells [3] (10% LuCaP 23.1 CM) and with MC3T3-E1 cells [3] (20% LuCaP 23.1 CM) was “significantly reduced mineralization” throughout. Further, the decrease in mineralization at PAP [4] (3.15 μM PA) was determined as 97.9%; on PAP [4] (6.25 μM PA) it was 92.1%; on PAP [4] (12.5 μM PA), 95.6%; at PAP [4] (25 μM PA) it was 97.6%. Also, at PAP [4] (PA tested 25 μM to 0.2 μM), the “lowest PA concentration with significant effect on mineralization” value was 0.4 µM.

Values taken from patent US9682090B2, “Methods for treating and preventing prostate cancer bone metastases” (University of Washington, priority 2014, dated 2017).
